Laboratory results published in the NIST ThermoML archive (doi:10.1016/j.jct.2004.11.001).

Details: Liquid; for speed of sound: non intrusive technique with two piezoelectric transducers based on the time of flight

[2H]C([2H])([2H])C(=O)C([2H])([2H])[2H] [(D6)-2-propanone]
Details | mass density [kg/m3] | speed of sound [m/s]
288.2 K, 100 kPa | – | 1110.6
288.2 K, 5020 kPa | – | 1140.7
288.2 K, 10060 kPa | – | 1168.2
288.2 K, 20010 kPa | – | 1218.6
288.2 K, 30090 kPa | – | 1264.4
288.2 K, 40050 kPa | – | 1302.9
288.2 K, 49940 kPa | – | 1345.4
288.2 K, 60000 kPa | – | 1382.2
288.2 K, 70020 kPa | – | 1417.2
288.2 K, 80060 kPa | – | 1450.1
288.2 K, 90030 kPa | – | 1481.9
288.2 K, 100110 kPa | – | 1512.5
288.2 K, 110100 kPa | – | 1540.4
288.2 K, 120100 kPa | – | 1568.3
288.2 K, 130120 kPa | – | 1595.5
288.2 K, 140000 kPa | – | 1620.6
288.2 K, 150150 kPa | – | 1640.3
288.2 K, 160030 kPa | – | 1664
298.15 K, 100 kPa | 868 | –
298.15 K, 5000 kPa | 873.51 | –
298.15 K, 9920 kPa | 878.81 | –
298.15 K, 14840 kPa | 883.83 | –
298.15 K, 19760 kPa | 888.58 | –
298.15 K, 24670 kPa | 893.11 | –
298.15 K, 29590 kPa | 897.46 | –
298.15 K, 34510 kPa | 901.62 | –
298.15 K, 39430 kPa | 905.63 | –
298.15 K, 44340 kPa | 909.51 | –
298.15 K, 49260 kPa | 913.26 | –
298.15 K, 54180 kPa | 916.86 | –
298.15 K, 59100 kPa | 920.33 | –
298.25 K, 100 kPa | – | 1071.6
298.25 K, 5080 kPa | – | 1103.4
298.25 K, 10170 kPa | – | 1131.8
298.25 K, 20270 kPa | – | 1183.7
298.25 K, 30000 kPa | – | 1229.6
298.25 K, 40010 kPa | – | 1272.1
298.25 K, 50020 kPa | – | 1312
298.25 K, 60450 kPa | – | 1350.7
298.25 K, 70020 kPa | – | 1383.8
298.25 K, 80010 kPa | – | 1416.9
298.25 K, 90200 kPa | – | 1443.5
298.25 K, 100040 kPa | – | 1478.7
298.25 K, 110070 kPa | – | 1507.6
298.25 K, 120040 kPa | – | 1535.4
298.25 K, 130020 kPa | – | 1561.1
298.25 K, 140020 kPa | – | 1586.5
298.25 K, 150120 kPa | – | 1611.2
298.25 K, 159970 kPa | – | 1634.8
303.16 K, 100 kPa | 861.61 | –
303.16 K, 5000 kPa | 867.3 | –
303.16 K, 9920 kPa | 872.78 | –
303.16 K, 14840 kPa | 877.94 | –
303.16 K, 19760 kPa | 882.84 | –
303.16 K, 24670 kPa | 887.5 | –
303.16 K, 29590 kPa | 891.96 | –
303.16 K, 34510 kPa | 896.23 | –
303.16 K, 39430 kPa | 900.35 | –
303.16 K, 44340 kPa | 904.3 | –
303.16 K, 49260 kPa | 908.1 | –
303.16 K, 54180 kPa | 911.79 | –
303.16 K, 59100 kPa | 915.34 | –
308.2 K, 100 kPa | 855.39 | –
308.2 K, 5000 kPa | 861.42 | –
308.2 K, 9920 kPa | 867.11 | –
308.2 K, 14840 kPa | 872.49 | –
308.2 K, 19760 kPa | 877.58 | –
308.2 K, 24670 kPa | 882.42 | –
308.2 K, 29590 kPa | 887.02 | –
308.2 K, 34510 kPa | 891.38 | –
308.2 K, 39430 kPa | 895.65 | –
308.2 K, 44340 kPa | 899.72 | –
308.2 K, 49260 kPa | 903.62 | –
308.2 K, 54180 kPa | 907.33 | –
308.2 K, 59100 kPa | 910.94 | –
308.22 K, 100 kPa | – | 1033.3
308.22 K, 5040 kPa | – | 1063.2
308.22 K, 10000 kPa | – | 1093.5
308.22 K, 20090 kPa | – | 1147.9
308.22 K, 29990 kPa | – | 1196.3
308.22 K, 40040 kPa | – | 1240.8
308.22 K, 50090 kPa | – | 1281.7
308.22 K, 60060 kPa | – | 1319.5
308.22 K, 70070 kPa | – | 1355
308.22 K, 80090 kPa | – | 1388.6
308.22 K, 89970 kPa | – | 1420.3
308.22 K, 100070 kPa | – | 1450.8
308.22 K, 110070 kPa | – | 1479.7
308.22 K, 120060 kPa | – | 1507.5
308.22 K, 130120 kPa | – | 1534.3
308.22 K, 140080 kPa | – | 1559.4
308.22 K, 150120 kPa | – | 1584
308.22 K, 160000 kPa | – | 1607.2
313.21 K, 100 kPa | 848.68 | –
313.21 K, 5000 kPa | 855 | –
313.21 K, 9920 kPa | 860.92 | –
313.21 K, 14840 kPa | 866.48 | –
313.21 K, 19760 kPa | 871.75 | –
313.21 K, 24670 kPa | 876.72 | –
313.21 K, 29590 kPa | 881.49 | –
313.21 K, 34510 kPa | 886.02 | –
313.21 K, 39430 kPa | 890.35 | –
313.21 K, 44340 kPa | 894.51 | –
313.21 K, 49260 kPa | 898.52 | –
313.21 K, 54180 kPa | 902.37 | –
313.21 K, 59100 kPa | 906.07 | –
318.11 K, 100 kPa | 842.15 | –
318.11 K, 5000 kPa | 848.68 | –
318.11 K, 9920 kPa | 854.81 | –
318.11 K, 14840 kPa | 860.56 | –
318.11 K, 19760 kPa | 865.99 | –
318.11 K, 24670 kPa | 871.14 | –
318.11 K, 29590 kPa | 876.06 | –
318.11 K, 34510 kPa | 880.71 | –
318.11 K, 39430 kPa | 885.18 | –
318.11 K, 44340 kPa | 889.44 | –
318.11 K, 49260 kPa | 893.55 | –
318.11 K, 54180 kPa | 897.49 | –
318.11 K, 59100 kPa | 901.28 | –
318.22 K, 100 kPa | – | 991.2
318.22 K, 4980 kPa | – | 1022.9
318.22 K, 10070 kPa | – | 1053.8
318.22 K, 19990 kPa | – | 1109.8
318.22 K, 30040 kPa | – | 1161.1
318.22 K, 40070 kPa | – | 1207.9
318.22 K, 50060 kPa | – | 1250.3
318.22 K, 60010 kPa | – | 1289.3
318.22 K, 70120 kPa | – | 1326.3
318.22 K, 80030 kPa | – | 1360.3
318.22 K, 90090 kPa | – | 1393
318.22 K, 100300 kPa | – | 1424.8
318.22 K, 110120 kPa | – | 1453.2
318.22 K, 120030 kPa | – | 1481
318.22 K, 129970 kPa | – | 1507.9
318.22 K, 140110 kPa | – | 1534.2
318.22 K, 150060 kPa | – | 1558.7
318.22 K, 160060 kPa | – | 1582.6
323.12 K, 100 kPa | 835.37 | –
323.12 K, 5000 kPa | 842.13 | –
323.12 K, 9920 kPa | 848.49 | –
323.12 K, 14840 kPa | 854.44 | –
323.12 K, 19760 kPa | 860.07 | –
323.12 K, 24670 kPa | 865.35 | –
323.12 K, 29590 kPa | 870.38 | –
323.12 K, 34510 kPa | 875.18 | –
323.12 K, 39430 kPa | 879.78 | –
323.12 K, 44340 kPa | 884.16 | –
323.12 K, 49260 kPa | 888.38 | –
323.12 K, 54180 kPa | 892.45 | –
323.12 K, 59100 kPa | 896.36 | –
328 K, 100 kPa | 828.68 | –
328 K, 5000 kPa | 835.72 | –
328 K, 9920 kPa | 842.33 | –
328 K, 14840 kPa | 848.48 | –
328 K, 19760 kPa | 854.24 | –
328 K, 24670 kPa | 859.71 | –
328 K, 29590 kPa | 864.88 | –
328 K, 34510 kPa | 869.82 | –
328 K, 39430 kPa | 874.55 | –
328 K, 44340 kPa | 879.05 | –
328 K, 49260 kPa | 883.39 | –
328 K, 54180 kPa | 887.57 | –
328 K, 59100 kPa | 891.6 | –
328.68 K, 100 kPa | – | 941.9
328.68 K, 5090 kPa | – | 977.6
328.68 K, 10030 kPa | – | 1009.5
328.68 K, 20070 kPa | – | 1068.8
328.68 K, 30010 kPa | – | 1121.9
328.68 K, 40010 kPa | – | 1171.1
328.68 K, 50070 kPa | – | 1215.9
328.68 K, 60000 kPa | – | 1256.7
328.68 K, 70030 kPa | – | 1294.8
328.68 K, 80090 kPa | – | 1330.4
328.68 K, 90100 kPa | – | 1364
328.68 K, 100060 kPa | – | 1396.1
328.68 K, 110140 kPa | – | 1426.4
328.68 K, 120100 kPa | – | 1454.7
328.68 K, 130000 kPa | – | 1481.9
328.68 K, 140020 kPa | – | 1508.4
328.68 K, 150040 kPa | – | 1533.8
328.68 K, 160100 kPa | – | 1557.9
332.91 K, 5000 kPa | 829.26 | –
332.91 K, 9920 kPa | 836.08 | –
332.91 K, 14840 kPa | 842.42 | –
332.91 K, 19760 kPa | 848.36 | –
332.91 K, 24670 kPa | 853.96 | –
332.91 K, 29590 kPa | 859.28 | –
332.91 K, 34510 kPa | 864.37 | –
332.91 K, 39430 kPa | 869.21 | –
332.91 K, 44340 kPa | 873.86 | –
332.91 K, 49260 kPa | 878.33 | –
332.91 K, 54180 kPa | 882.64 | –
332.91 K, 59100 kPa | 886.8 | –
338.72 K, 100 kPa | – | 888.6
338.72 K, 5050 kPa | – | 927.2
338.72 K, 10020 kPa | – | 962.5
338.72 K, 20030 kPa | – | 1025.1
338.72 K, 30050 kPa | – | 1081.4
338.72 K, 40010 kPa | – | 1132.6
338.72 K, 49990 kPa | – | 1179.8
338.72 K, 60050 kPa | – | 1223.2
338.72 K, 70040 kPa | – | 1262.8
338.72 K, 79970 kPa | – | 1299.3
338.72 K, 90070 kPa | – | 1334.7
338.72 K, 100040 kPa | – | 1367.5
338.72 K, 110020 kPa | – | 1398.5
338.72 K, 119960 kPa | – | 1428.5
338.72 K, 130000 kPa | – | 1456.6
338.72 K, 140080 kPa | – | 1484.3
338.72 K, 150050 kPa | – | 1510.5
338.72 K, 159910 kPa | – | 1535.5
